The values below come from PubChem BioAssay AID179 (DTP/NCI, 2004).

This assay relates to CEM cells HIV-1 protection, formazan growth assay. Briefly: NCI AIDS Antiviral Assay. Conditions: for IC50: measured here: growth of uninfected CEM cells. Summed up:
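Protection of CEM cells against HIV-1 measured as cell growth via soluble formazan read-out, with five concentrations tested on both infected and uninfected cells; failure to protect may reflect toxicity.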

Molecules are shown by their SMILES. Calls of active or inactive are those of the source.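 The calls were made as follows: active = compounds giving half or more protection of infected cells from virus-caused growth loss, again on retest; inactive = the rest.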

In the case of `[O-]c1on[n+]2c1Cc1ccccc1C2`, the EC50 (commonly the concentration needed to bring the measured effect to its halfway point) was > 200 µM and the IC50 (usually the concentration that gives 50% inhibition) is > 200 µM. For the molecule `CC1C2CC(C(S(=O)(=O)O)C2=O)C1(C)C` (configuration not stated), the EC50 was > 1000 µM and the IC50 was > 1000 µM.

Take `Cn1c(=O)c2c(n(C)c1=O)n1c(=O)c3ccccc3nc1n2C`: the EC50 was > 200 µM and the IC50 was > 200 µM. In the case of `O=c1[nH]nc(CNc2ccc(Cl)cc2Cl)c2ccccc12`, the EC50 is 55 µM and the IC50 was found to be 58.9 µM. Taken in the same sequence, the figures for `O=C1NC(=S)NC1C(Cc1ccccc1)c1ccccc1` (configuration not stated) were > 200 µM and 85.1 µM. Turning to `Cc1cc2c(ccc3c(C)cc(=O)oc32)o1`, the result was inactive. As to `N#CC12CC=C(c3ccccc3)N=C1NC(c1ccccc1)=CC2` (configuration not stated), the EC50 was > 200 µM and the IC50 worked out at 23.4 µM. Regarding `CCC(/C=C/c1ccccc1)=N\N=C(\C=C\c1ccccc1)CC`, the EC50 was > 41.7 µM and the IC50 stood at 2.51 µM.

`Cc1ccc(S(=O)(=O)N2CCCSCCSCCCN(S(=O)(=O)c3ccc(C)cc3)CC2)cc1`: the EC50 is > 13.2 µM and the IC50 was > 13.2 µM. In the case of `C[C@@H](c1ccccc1)N(CC#N)[C@H]1CCC[C@]1(O)/C=C/c1ccc2c(c1)OCO2`, the EC50 is > 50.1 µM and the concentration for half-maximal inhibition (IC50) is > 50.1 µM. For the molecule `Cc1c(N)nc(C2CC(=O)N2CC(N)C(N)=O)nc1C(=O)NC(C(=O)NC(C)C(O)C(C)C(=O)NC(C(=O)NCCc1nc(-c2nc(C(=O)NCCNCC(C)O)cs2)cs1)C(C)O)C(OC1OC(CO)C(O)C(O)C1OC1OC(CO)C(O)C(OC(N)=O)C1O)c1cnc[nH]1` (configuration not stated), the result was inactive.

Take `COc1ccc(S(=O)Cc2cc(OC)ccc2OC)cc1` (configuration not stated): the outcome was inactive.

As to `COc1cc2c(cc1OCc1ccccc1)C=CN(C(=O)c1ccccc1)C2C#N` (configuration not stated), the result was inactive. With `CC(C)(C)[Si](C)(C)O[C@@H](C(=O)OC1C=CCCC1)[C@@H](NC(=O)c1ccccc1)c1ccccc1` (some centres not stated), the EC50 was > 200 µM and the IC50 turned out to be 12.3 µM. As to `CN(C)CCNC(=O)Cn1cc([N+](=O)[O-])c(=O)c2ccccc21`, the EC50 was > 200 µM and the IC50 was > 200 µM.

For `O=S(=O)(O)c1ccc2c(c1)Sc1cc(S(=O)(=O)O)ccc1O2`, the result was inactive. The same measure, in the same setting: for `O=c1oc2ccccc2c(O)c1C1c2ccccc2Oc2c1c(=O)oc1ccccc21` (configuration not stated) the value was “inactive”. Regarding `C[C@@H](NC(=O)Cn1c(Cl)nc2ccccc21)c1ccccc1`, the EC50 was > 200 µM and the IC50 stood at 13.5 µM. For the molecule `Cc1ccc2nc(Nc3ccccc3C)c(Nc3ccccc3C)nc2c1`, the outcome was inactive. For the molecule `CNC(=O)OC(C)CN1c2ccccc2Sc2ccccc21` (configuration not stated), the EC50 was > 200 µM and the IC50 turned out to be 41.7 µM.

As to `Cc1nc2c(=O)n(C)c(=O)nc-2n(-c2ccc(Cl)cc2)c1C`, the outcome was inactive.

Regarding `Cc1cccc(C)c1N1C(=O)C(=O)C(c2nc3ccccc3s2)/C(=N/NC(=O)NN)C1=O` (configuration not stated), the result was inactive. On the same count and under the same terms, for `COC(=O)C1Cc2c(n(C)c3ccccc23)C(c2ccccc2)N1` (configuration not stated) the value was “inactive”.

Turning to `COc1ccc(CCN(C)CCCC2(C#N)c3ccccc3-c3ccccc32)cc1OC`, the EC50 is > 60.3 µM and the IC50 was 47.9 µM. Turning to `COc1ccc(NC(C)c2ccncc2)cc1` (configuration not stated), the EC50 is > 200 µM and the IC50 was > 200 µM.

In the case of `C[N+](C)(C)CC(=O)N/N=C(/Cc1nc2ccc([N+](=O)[O-])cc2[nH]c1=O)C(=O)Nc1cc(C(F)(F)F)ccc1Cl`, the EC50 is > 295 µM and the IC50 came out at 120 µM. Taken in the same sequence, the figures for `NCc1ccccc1-c1c2nc(c(-c3ccccc3CN)c3ccc([nH]3)c(-c3ccccc3CN)c3nc(c(-c4ccccc4CN)c4ccc1[nH]4)C=C3)C=C2` were > 9.77 µM and > 9.77 µM. In the same order, the values of `CC(/C=C1\N=C(c2ccccc2)OC1=O)=C\c1ccccc1` are > 200 µM and 105 µM. On to `COc1ccc2c(c1)OC[C@@H]1c3cc(O)c(OCc4ccccc4)cc3O[C@H]21`, for which the concentration giving a half-maximal response (EC50) was 9.12 µM and the half-maximal inhibitory concentration (IC50) was 24 µM. Taken in the same sequence, the figures for `COc1cc(CC(=O)c2ccc3c(c2)OCO3)cc(OC)c1OC` were > 204 µM and > 204 µM. Taken in the same sequence, the figures for `CC(C)(C)OC(=O)CC(NC(=O)OC(C)(C)C)C(=O)N[C@@H]1CCCC[C@H]1C(=O)OCc1ccccc1` (some centres not stated) were > 200 µM and 10.5 µM. In the same order, the values of `CN1C(=O)CC(c2cccc(C3CC(=O)N(C)C3=O)n2)C1=O` (configuration not stated) are > 832 µM and > 832 µM.

On to `CC1(C)C(=O)/C(=C/c2ccccc2)C(C)(C)C1(C)C`, for which the result was inactive. For the molecule `Cc1cc2c(cc1C)[n+](=O)c(C(=O)CC(=O)C(=O)Nc1ccccc1C(C)C)c(C)n2[O-]`, the EC50 is > 575 µM and the IC50 is > 575 µM. Regarding `Nc1ccc2c(c1)Oc1ccc(N)cc1O2`, the EC50 was > 200 µM and the IC50 was > 200 µM. With `O=C(/C=C/c1ccccc1)CC(=O)c1ccccc1.O=C(/C=C/c1ccccc1)CC(=O)c1ccccc1.[Cu]`, the EC50 was > 200 µM and the IC50 was determined as 95.5 µM. `CCOC(=O)c1ccc(N2CN3c4ccccc4CCC3C2c2c[nH]c(=O)[nH]c2=O)cc1` (configuration not stated): the EC50 is > 69.2 µM and the IC50 was > 69.2 µM. Consider `CC(=O)OCC(C)C1=C(O)C(=O)C2(C)C/C=C(/C)CC/C=C(\C)CCC(O)C(C)CCC12` (configuration not stated), for which the EC50 is > 200 µM and the IC50 came out at 11.5 µM. On to `O=c1[nH]c(CCc2ccccc2)nc2ccccc12`, for which the EC50 was > 7.94 µM and the IC50 is > 7.94 µM. For the molecule `Cc1ccc(/C=N/n2c(-c3ccc(C)cc3)n[nH]c2=O)cc1`, the EC50 is > 200 µM and the IC50 was > 200 µM. `Cc1ccc(N2CC(O)CSC2=Nc2ccccc2)cc1` (configuration not stated): the EC50 was > 112 µM and the IC50 amounted to 46.8 µM.

For the molecule `CC(=O)/C=C/c1ccc(C2CC(C)=Nc3c(ccc4c3C(=O)c3ccccc3C4=O)N2)cc1` (configuration not stated), the EC50 was > 6.31 µM and the half-inhibitory concentration (IC50) was > 6.31 µM. Take `COC1(OC)CC2C(=O)CCCC21OC` (configuration not stated): the EC50 was > 603 µM and the half-inhibitory concentration (IC50) is > 603 µM.

In the case of `C=CC1CN2CCC1C/C2=N\O` (configuration not stated), the result was inactive. Consider `Cc1ccccc1C1(O)c2ccccc2Oc2ccccc21`, for which the EC50 was > 200 µM and the IC50 came to 13.8 µM. For `CC(C)(CO)NC(=O)c1cccc(C(=O)NC(C)(C)CO)c1Br`, the EC50 is > 200 µM and the IC50 is > 200 µM. In the case of `O=C1C(=Cc2cccc(Cl)c2)N=C(c2ccccc2)N1n1c(-c2ccccc2)nc2ccccc2c1=O`, the EC50 was > 200 µM and the IC50 turned out to be 35.5 µM. For `Clc1nc2nc3ccccc3nc2nc1Cl`, the EC50 is > 100 µM and the IC50 is 77.6 µM.

For `CCc1[nH]nc(-c2ccc(OC)cc2)c1-c1ccccc1O`, the EC50 was > 200 µM and the IC50 was 20.9 µM. Take `c1ccc2c(c1)N=c1ccccc1=P21c2ccccc2Nc2ccccc21`: the EC50 is > 2 µM and the IC50 amounted to 0.214 µM. In the same order, the values of `Cc1ccc(S(=O)(=O)Oc2nc3nc4ccccc4nc3nc2OS(=O)(=O)c2ccc(C)cc2)cc1` are > 200 µM and 102 µM. In the same order, the values of `O=S1(=O)C(c2ccccc2)C(N2CCCCC2)C1C1CC2c3ccccc3C1c1ccccc12` (configuration not stated) are > 200 µM and 8.32 µM.
